Measured values from patent US6803186B2, “Compositions and methods for increasing amino acid absorption in mammals” (The IAMS Company, priority 2001, dated 2004).
Square brackets hold non-standard residues; d marks the D form. Peptide text beside a SMILES is read from it. Sar = CNCC(=O)O

Experiments:
[1] = biological target: T1, PepT1-expressing Caco-2 cells (Homo sapiens, UniProt P46059); settings: read-out: reported Km for GlySar uptake; cited from earlier work
T1 construct: GlySar uptake by the PepT1-expressing Caco-2 cells; host or cells: Caco-2 cells
T1 sequence (P46059 1-708): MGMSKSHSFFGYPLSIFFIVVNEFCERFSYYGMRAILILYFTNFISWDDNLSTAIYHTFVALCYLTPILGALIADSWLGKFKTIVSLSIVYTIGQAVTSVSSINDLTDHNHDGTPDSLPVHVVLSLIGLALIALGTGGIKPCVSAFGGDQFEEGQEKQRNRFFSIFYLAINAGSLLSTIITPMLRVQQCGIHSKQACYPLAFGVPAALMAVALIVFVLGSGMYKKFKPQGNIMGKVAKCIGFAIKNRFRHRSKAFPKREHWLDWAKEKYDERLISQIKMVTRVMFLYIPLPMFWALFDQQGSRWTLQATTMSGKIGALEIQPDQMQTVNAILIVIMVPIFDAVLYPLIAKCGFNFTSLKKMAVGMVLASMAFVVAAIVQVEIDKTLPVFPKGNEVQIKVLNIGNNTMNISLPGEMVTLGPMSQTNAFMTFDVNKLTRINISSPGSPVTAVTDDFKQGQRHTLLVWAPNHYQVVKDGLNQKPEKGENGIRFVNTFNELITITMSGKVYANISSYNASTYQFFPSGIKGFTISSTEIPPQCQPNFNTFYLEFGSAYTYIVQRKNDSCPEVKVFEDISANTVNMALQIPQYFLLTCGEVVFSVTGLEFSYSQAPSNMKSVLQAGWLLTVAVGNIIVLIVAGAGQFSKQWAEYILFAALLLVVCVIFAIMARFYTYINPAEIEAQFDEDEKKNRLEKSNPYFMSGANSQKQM

canine PepT1 (cPepT1) = biological target: T2, canine PepT1 (cPepT1) (Canis lupus familiaris, UniProt Q8WMX5); assay: Substrate regulation of H+-dependent GlySar uptake capacity of MDCK cells cultured in DMEM (Example 3, Trials 1 and 2); type: cell-based; settings: 10 mM in DMEM, 24 h of culture
T2 construct: endogenous in cells; host or cells: MDCK (Madin-Darby Canine Kidney) cells, whole-cell [3H]-GlySar uptake
T2 sequence (Q8WMX5 1-708): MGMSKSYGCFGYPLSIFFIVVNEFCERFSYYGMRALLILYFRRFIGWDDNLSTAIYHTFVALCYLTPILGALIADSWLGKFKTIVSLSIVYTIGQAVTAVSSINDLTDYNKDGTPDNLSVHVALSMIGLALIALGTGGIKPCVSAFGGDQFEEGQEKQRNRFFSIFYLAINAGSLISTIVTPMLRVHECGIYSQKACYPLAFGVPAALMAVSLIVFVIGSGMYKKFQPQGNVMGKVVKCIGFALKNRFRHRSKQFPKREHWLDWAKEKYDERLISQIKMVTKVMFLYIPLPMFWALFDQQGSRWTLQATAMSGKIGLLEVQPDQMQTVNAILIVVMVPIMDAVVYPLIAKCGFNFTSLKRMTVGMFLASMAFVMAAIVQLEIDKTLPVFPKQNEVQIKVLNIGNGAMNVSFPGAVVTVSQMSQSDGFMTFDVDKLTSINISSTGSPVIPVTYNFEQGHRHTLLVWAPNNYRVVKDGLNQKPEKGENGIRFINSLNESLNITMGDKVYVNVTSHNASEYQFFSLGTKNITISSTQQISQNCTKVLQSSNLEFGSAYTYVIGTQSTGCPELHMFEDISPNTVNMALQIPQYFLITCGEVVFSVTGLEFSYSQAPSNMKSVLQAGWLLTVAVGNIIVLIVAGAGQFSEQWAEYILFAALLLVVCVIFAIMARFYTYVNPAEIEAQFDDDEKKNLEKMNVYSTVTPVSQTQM
Protocol: All cells were plated (60,000/2 cm^2 well) and cultured (95% air/5% CO2, 37° C.) for 24 h in Dulbecco's Modified Eagle Media/10% fetal calf serum (FCS)/1%Antibiotic/Antimicrobial solution (ABAM) (DMEM media). Following these initial common culture conditions, cells then were cultured in DMEM, or DMEM that contained 10 mM of Camosine, GlyPhe, Phe, or Gly. Media were changed every 24 h. Media treatments (n=8) were as follows:
The measurement of [^3H]Glysarcosine uptake was performed by using a 24-well cluster tray method (Kilberg M S. Measurement of amino acid transport by hepatocytes in suspension and monolayer culture. Methods Enzym 1989; 173:564-575. Matthews J C, Aslanian A, McDonald K K, Yang W, Malandro M S, Novak D A, Kilberg M S. An expression system for mammalian amino acid transport using a stably maintained episomal vector. Anal Biochem 1997; 254:208-214), and used in Examples 1 and 2. Cells were cultured for 30 min in air at 37° C. in depletion medium (25 mM Hepes/Tris (pH 7.5), 140 mM NaCl, 5.4 mM KCl, 1.8 mM CaCl2, 0.8 mM MgSO4, and 5 mM glucose), to normalize intracellular nutrient pools before transport. The transport assays are initiated by replacing depletion medium with uptake medium (Depletion medium adjusted to pH 6.0) that contained 100 μM GlySar (5 μCi/mL, with [^3H]-GlySar supplying 2.88% of total GlySar). After a 30 minute incubation period, transport was terminated with four rinses of 4° C. depletion medium (pH 7.5). Two hundred and twenty μL of 10% trichloroacetic acid was added to each well, and the radioactivity of the supernatant quantified by liquid scintillation counting. The cells of each well are solubilized in 0.2 N NaOH/0.2% SDS and the protein quantified by using the modified Lowry assay, using bovine serum as a standard. Id. Peptide uptake will be reported as pmol* mg^−1 protein* 30 min^−1. Uptake measurements were taken after 24, 48, and 72 hours of culture in treatment media.
The MDCK cell line was maintained as described previously in the Methods section of Trial 1. […]

increase in GlySar uptake capacity over DMEM control media (canine PepT1 (cPepT1)): about 30%
SMILES: CN(CC(=O)O)C(=O)CN [GlySar, glycylsarcosine] (H-Gly-[Sar]-OH)
Km [1]: 1100 µM
